In DBAASP:
In brackets after ≈: the same amount, converted by molar mass. Several values for one entry are separate records, joined by “and”; a condition that tells them apart may be missing. Equal values may be shown once. Values belong to the molecule of their own block, whether it stands above or below them.

Assays:
Test in all cases: ≥ marks a high value that may be exact or a test limit, other limits are often not marked, values filed in µg/mL are converted to µM
[1] = tested on: Candida albicans NCPF 1467
[2] = tested on: Enterococcus faecalis NCTC 12697
[3] = tested on: Escherichia coli NCTC 10418
[4] = tested on: Pseudomonas aeruginosa ATCC 27853
[5] = tested on: Staphylococcus aureus ATCC 12493
[6] = tested on: Staphylococcus aureus NCTC 10788
Candida albicans CA1 = tested on: Candida albicans CA1
[7] = tested on: Candida krusei ATCC 40095
[8] = tested on: Candida krusei ATCC 40147
[9] = tested on: Candida parapsilosis ATCC 90018
[10] = tested on: Klebsiella pneumoniae ATCC 13866
[11] = tested on: Acinetobacter baumannii ATCC 17978
[12] = tested on: Escherichia coli ATCC 8739
[13] = tested on: Staphylococcus aureus HNCMO 112011
[14] = tested on: Aspergillus oryzae NBRC 100959
[15] = tested on: Candida viswanathii NBRC 10321
[16] = tested on: Escherichia coli NBRC 3972
[17] = tested on: Micrococcus luteus NBRC 3333
[18] = tested on: Pseudomonas putida NBRC 100650
[19] = tested on: Staphylococcus epidermidis NBRC 12993
[20] = tested on: Escherichia coli ATCC 25922
Escherichia coli UB1005 = tested on: Escherichia coli UB1005
[21] = tested on: Lacticaseibacillus rhamnosus 1.0385
[22] = tested on: Lacticaseibacillus rhamnosus 1.0386
[23] = tested on: Lacticaseibacillus rhamnosus 1.0911
[24] = tested on: Lacticaseibacillus rhamnosus 1.0925
[25] = tested on: Lacticaseibacillus rhamnosus 7469
[26] = tested on: Lactiplantibacillus plantarum 8014
[27] = tested on: Staphylococcus aureus ATCC 29213
[28] = tested on: Staphylococcus aureus ATCC 43300
[29] = tested on: Staphylococcus epidermidis ATCC 12228
Candida albicans = tested on: Candida albicans
Candida glabrata = tested on: Candida glabrata
Candida krusei ATCC 6258 = tested on: Candida krusei ATCC 6258
[30] = tested on: Candida parapsilosis ATCC 22019
Klebsiella pneumoniae = tested on: Klebsiella pneumoniae
Listeria monocytogenes = tested on: Listeria monocytogenes
Pasteurella multocida = tested on: Pasteurella multocida
Staphylococcus aureus MR = tested on: Staphylococcus aureus MR
[31] = tested on: Streptococcus agalactiae ATCC 12386
[32] = tested on: Streptococcus dysgalactiae
Streptococcus equi = tested on: Streptococcus equi
[33] = tested on: Streptococcus lutetiensis
Streptococcus mutans = tested on: Streptococcus mutans
Streptococcus oralis = tested on: Streptococcus oralis
[34] = tested on: Streptococcus pneumoniae ATCC 49619
[35] = tested on: Streptococcus pyogenes ATCC 19615
Streptococcus salivarius = tested on: Streptococcus salivarius

MIC [1]: ≥ 512 µM | MIC [2]: ≥ 512 µM | MIC [3]: ≥ 512 µM | MIC [4]: > 512 µM | MIC [5]: ≥ 512 µM | MIC [6]: ≥ 512 µM
Structure (SMILES): CC[C@H](C)[C@H](NC(=O)[C@@H](NC(=O)CNC(=O)[C@@H]1CCCN1C(=O)[C@@H](NC(=O)[C@@H](NC(=O)[C@H](CC(N)=O)NC(=O)[C@H](C)NC(=O)[C@H](C)NC(=O)[C@@H](NC(=O)[C@H](CCCCN)NC(=O)[C@H](CC(C)C)NC(=O)[C@@H](NC(=O)CNC(=O)[C@@H]1CCCN1C(=O)[C@H](CC(C)C)NC(=O)[C@@H](N)Cc1ccccc1)[C@@H](C)CC)C(C)C)C(C)C)C(C)C)C(C)C)C(=O)O [FLPGILKVAANVVPGVI]

MIC (Candida albicans CA1): 10 µM (≈ 15 µg/mL) | MIC [7]: 10 µM and 20 µM | MIC [8]: 10 µM (≈ 15 µg/mL) | MIC [9]: 20 µM (≈ 30.1 µg/mL)
Structure (SMILES): CC[C@H](C)[C@H](NC(=O)[C@H](C)NC(=O)[C@H](CCCCN)NC(=O)[C@H](CC(C)C)NC(=O)[C@H](C)NC(=O)[C@H](Cc1c[nH]c2ccccc12)NC(=O)[C@H](CCCCN)NC(=O)[C@H](C)NC(=O)[C@H](CC(C)C)NC(=O)[C@@H](NC(=O)CNC(=O)[C@H](Cc1c[nH]c2ccccc12)NC(=O)[C@@H](N)Cc1ccccc1)[C@@H](C)O)C(=O)O [FWGTLAKWALKAI]

MIC [10]: ≥ 34.3 µM | MIC [4]: 4.28 µM (≈ 8 µg/mL)
Structure (SMILES): CC[C@H](C)[C@H](NC(=O)CN)C(=O)N[C@@H](Cc1cnc[nH]1)C(=O)NCC(=O)N[C@H](C(=O)N[C@H](C(=O)N[C@@H](CCCN=C(N)N)C(=O)N[C@@H](CO)C(=O)N[C@@H](Cc1ccccc1)C(=O)N[C@@H](CCSC)C(=O)N[C@@H](CCCN=C(N)N)C(=O)N[C@@H](CCSC)C(=O)N[C@@H](CC(C)C)C(=O)NCC(=O)N[C@@H](Cc1cnc[nH]1)C(=O)N[C@@H](CC(C)C)C(=O)NCC(=O)O)C(C)C)C(C)C [GIHGVVRSFMRMLGHLG]

MIC [11]: 3.1 µM (≈ 8.54 µg/mL) | MIC [12]: 3.1 µM (≈ 8.54 µg/mL) | MIC [13]: 3.1 µM (≈ 8.54 µg/mL)
Structure (SMILES): CC[C@H](C)[C@H](NC(=O)[C@H](CCCCN)NC(=O)[C@H](CCCCN)NC(=O)[C@H](C)NC(=O)[C@H](CC(C)C)NC(=O)[C@H](C)NC(=O)[C@H](C)NC(=O)[C@H](CC(C)C)NC(=O)[C@H](C)NC(=O)[C@H](CCCCN)NC(=O)[C@H](CCCN=C(N)N)NC(=O)[C@H](CCCN=C(N)N)NC(=O)[C@H](CCCN=C(N)N)NC(=O)[C@H](CS)NC(=O)[C@H](Cc1ccc(O)cc1)NC(=O)[C@H](CC(C)C)NC(=O)[C@@H]1CCCN1C(=O)[C@H](CCCN=C(N)N)NC(=O)[C@H](CCCN=C(N)N)NC(=O)[C@H](CS)NC(=O)[C@H](CCC(N)=O)NC(=O)[C@@H](N)CCC(N)=O)C(=O)N[C@@H](CC(C)C)C(=O)O [QQCRRPLYCRRRKALAALAKKIL]

MIC [14]: 17.5 µM (≈ 25 µg/mL) | MIC [15]: 17.5 µM (≈ 25 µg/mL) | MIC [16]: 8.73 µM (≈ 12.5 µg/mL) | MIC [17]: 17.5 µM (≈ 25 µg/mL) | MIC [18]: 17.5 µM (≈ 25 µg/mL) | MIC [19]: ≥ 69.8 µM
Structure (SMILES): CC[C@H](C)[C@H](NC(=O)[C@H](CCCCN)NC(=O)[C@@H](N)CCCN=C(N)N)C(=O)N[C@@H](CCCCN)C(=O)N[C@H](C(=O)N[C@@H](Cc1ccc(O)cc1)C(=O)N[C@@H](CC(C)C)C(=O)N1CCC[C@H]1C(=O)N[C@@H](CCCN=C(N)N)C(=O)N[C@@H](CCSC)C(=O)N[C@@H](CCCCN)C(=O)O)C(C)C [RKIKVYLPRMK]

MIC [20]: 4 µM (≈ 7.32 µg/mL) | MIC (Escherichia coli UB1005): 4 µM (≈ 7.32 µg/mL) | MIC [21]: ≥ 64 µM | MIC [22]: 16 µM (≈ 29.3 µg/mL) | MIC [23]: ≥ 64 µM | MIC [24]: ≥ 64 µM | MIC [25]: ≥ 64 µM | MIC [4]: 4 µM (≈ 7.32 µg/mL) | MIC [27]: 4 µM (≈ 7.32 µg/mL) | MIC [28]: 4 µM (≈ 7.32 µg/mL) | MIC [29]: 4 µM (≈ 7.32 µg/mL)
Structure (SMILES): NC(=O)CC[C@H](NC(=O)[C@H](Cc1c[nH]c2ccccc12)NC(=O)[C@H](Cc1c[nH]c2ccccc12)NC(=O)[C@H](Cc1c[nH]c2ccccc12)NC(=O)[C@H](CCC(N)=O)NC(=O)[C@H](Cc1c[nH]c2ccccc12)NC(=O)[C@H](CCCN=C(N)N)NC(=O)[C@@H](N)CCCN=C(N)N)C(=O)N[C@@H](Cc1c[nH]c2ccccc12)C(=O)N[C@@H](CCCN=C(N)N)C(=O)N[C@@H](CCCN=C(N)N)C(N)=O [RRWQWWWQWRR]
MIC [26]: 8 µM (≈ 14.6 µg/mL)

MIC (Candida albicans): > 20.1 µM | MIC (Candida glabrata): 20.1 µM (≈ 64 µg/mL) | MIC (Candida krusei ATCC 6258): 20.1 µM (≈ 64 µg/mL) | MIC [30]: 10 µM (≈ 32 µg/mL) | MIC (Klebsiella pneumoniae): > 20.1 µM | MIC (Listeria monocytogenes): 20.1 µM (≈ 64 µg/mL) | MIC (Pasteurella multocida): 20.1 µM (≈ 64 µg/mL) | MIC [4]: > 20.1 µM | MIC [27]: 10 µM and 6.27 µM | MIC (Staphylococcus aureus MR): 10 µM (≈ 32 µg/mL) | MIC [31]: 20.1 µM (≈ 64 µg/mL) | MIC [32]: 20.1 µM (≈ 64 µg/mL) | MIC (Streptococcus equi): 20.1 µM (≈ 64 µg/mL) | MIC [33]: 20.1 µM (≈ 64 µg/mL) | MIC (Streptococcus mutans): 20.1 µM (≈ 64 µg/mL) | MIC (Streptococcus oralis): 20.1 µM (≈ 64 µg/mL) | MIC [34]: 20.1 µM (≈ 64 µg/mL) | MIC [35]: 20.1 µM (≈ 64 µg/mL) | MIC (Streptococcus salivarius): 10 µM (≈ 32 µg/mL)
Structure (SMILES): CC[C@H](C)[C@H](NC(=O)CNC(=O)[C@H](CC(=O)O)NC(=O)CNC(=O)[C@H](CC(C)C)NC(=O)[C@H](CCCN=C(N)N)NC(=O)[C@H](CCCCN)NC(=O)[C@H](CC(C)C)NC(=O)[C@H](CC(C)C)NC(=O)[C@H](CO)NC(=O)[C@H](CCCN=C(N)N)NC(=O)[C@H](CCCN=C(N)N)NC(=O)[C@H](CCCCN)NC(=O)[C@@H](NC(=O)[C@H](CCCCN)NC(=O)[C@@H](N)CO)[C@@H](C)O)C(=O)N[C@@H](CCCN=C(N)N)C(=O)NCC(=O)N[C@@H](Cc1ccccc1)C(=O)N[C@@H](Cc1c[nH]c2ccccc12)C(=O)N[C@@H](CC(N)=O)C(=O)NCC(=O)N[C@@H](Cc1ccccc1)C(=O)N[C@@H](CCCN=C(N)N)C(=O)NCC(=O)N[C@@H](CCCN=C(N)N)C(=O)N[C@@H](CCCCN)C(=O)O [SKTKRRSLLKRLGDGIRGFWNGFRGRK]
